We go through ten compounds from ChEMBL document CHEMBL1201862, “PubChem BioAssay data set” (2004).

The structures appear in SMILES notation.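 Five compound concentrations were applied to cells in 96-well plates for 48 hours; endpoints were derived by simple linear interpolation of the resulting dose-response curve. Here, GI50 denotes the concentration required for 50% inhibition of growth.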 The source made the active and inactive calls. No stated cut-off is given here; in the data, active = GI50 up to about 1.1 µM and inactive = higher.

Among the test systems are A549; CAKI-1; CCRF-CEM; DU-145; HCT-15; M14; MDA-MB-231; MDA-N; NCI-H226; NCI/ADR-RES; OVCAR-5; RPMI-8226; SK-MEL-28; SN12C; SNB-75; SR; SW-620; UACC-257; UACC-62; SK-OV-3.
What all share (experiment): inhibition of tumour cell growth, NCI panel, 48 h

As for `C[C@H](CCC(=O)O)[C@H]1CC[C@H]2[C@@H]3[C@@H](O)C[C@@H]4C[C@H](O)CC[C@]4(C)[C@H]3C[C@H](O)[C@]12C`, the GI50 in the test on A549 is > 100 µM (inactive); in the test with CAKI-1 it was > 100 µM (inactive); with CCRF-CEM, > 100 µM (inactive); in the test with DU-145, > 100 µM (inactive); with HCT-15, more than 100 µM; in the test with M14, > 100 µM (inactive). Besides, the GI50 with MDA-MB-231, in the test with MDA-N, in the test with NCI-H226, with NCI/ADR-RES, with OVCAR-5 and in the test on RPMI-8226 was > 100 µM (inactive) each time. The GI50 in the test on SK-MEL-28, with SN12C, in the test on SNB-75, in the test with SR, in the test on SW-620 and in the test on UACC-257 was > 100 µM (inactive) throughout. For the same compound, the GI50 with UACC-62 was > 100 µM (inactive).
For the compound `Nc1nc(Cl)cc(NCCO)n1`, the GI50 was > 100 µM (inactive) in the test with A549; > 100 µM (inactive) in the test on CAKI-1; > 100 µM (inactive) with DU-145; more than 100 µM in the test on HCT-15; > 100 µM (inactive) in the test on M14; > 100 µM (inactive) in the test on MDA-MB-231. For the same compound, the GI50 with MDA-N, with NCI-H226, in the test with NCI/ADR-RES, in the test with OVCAR-5, in the test with RPMI-8226 and in the test on SK-MEL-28 was > 100 µM (inactive) each time. For the same compound, the GI50 in the test with SK-OV-3, with SN12C, in the test with SNB-75, in the test on SR, with SW-620 and in the test on UACC-257 was > 100 µM (inactive) each time. Further, in the test with UACC-62, the GI50 was > 100 µM (inactive).
Regarding `CCOP(=O)(OCC)C(c1ccc(F)cc1)N(C(=O)NC(F)(F)F)c1ccc(F)cc1` (stereo not drawn), the GI50 was > 100 µM (inactive) in the test on A549; > 100 µM (inactive) in the test on CAKI-1; > 100 µM (inactive) in the test with CCRF-CEM; > 100 µM (inactive) in the test on DU-145; more than 100 µM in the test on HCT-15; > 100 µM (inactive) in the test with M14. For the same compound, the GI50 with MDA-MB-231, in the test with MDA-N, in the test on NCI-H226, with NCI/ADR-RES, with OVCAR-5 and in the test on RPMI-8226 was > 100 µM (inactive) in each case. The GI50 in the test on SK-MEL-28, in the test on SN12C, with SNB-75, with SR, with SW-620 and with UACC-257 was > 100 µM (inactive) in each case.
For `c1ccc2c(c1)nc1n2CNCC1`, the GI50 in the test with A549 was > 100 µM (inactive); with CAKI-1, 49 µM (inactive); in the test on DU-145, 43.3 µM (inactive); in the test on HCT-15 it was 50.2 µM; in the test on M14, > 100 µM (inactive); in the test on MDA-MB-231, > 100 µM (inactive). Also, the GI50 with MDA-N is > 100 µM (inactive); in the test with NCI-H226, > 100 µM (inactive); in the test with NCI/ADR-RES, > 100 µM (inactive); in the test on OVCAR-5 it was > 100 µM (inactive); in the test with RPMI-8226, 26.4 µM (inactive); with SK-MEL-28, 48.3 µM (inactive). The GI50 was > 100 µM (inactive) in the test on SK-OV-3; > 100 µM (inactive) in the test on SN12C; 90.8 µM (inactive) with SNB-75; 29.7 µM (inactive) in the test with SR; 34.7 µM (inactive) in the test with SW-620; > 100 µM (inactive) in the test with UACC-257. Besides, the GI50 in the test with UACC-62 was > 100 µM (inactive).
In the case of `CN1CCC(CNC(=O)CCCCCCCCC(=O)NCC2(c3ccccc3)CCN(C)CC2)(c2ccccc2)CC1`, the GI50 with A549 was > 100 µM (inactive); in the test with CCRF-CEM it was 84.7 µM (inactive); with DU-145, > 100 µM (inactive); in the test on HCT-15, more than 100 µM; in the test on M14 it was 57.3 µM (inactive); with MDA-MB-231, > 100 µM (inactive). The GI50 in the test on MDA-N, in the test with NCI-H226, with NCI/ADR-RES, in the test with OVCAR-5, with RPMI-8226 and in the test on SK-MEL-28 was > 100 µM (inactive) in each case. Also, the GI50 was > 100 µM (inactive) in the test on SK-OV-3; > 100 µM (inactive) in the test on SN12C; 44.2 µM (inactive) with SNB-75; > 100 µM (inactive) in the test with SR; > 100 µM (inactive) in the test with SW-620; 38.8 µM (inactive) in the test on UACC-257. Also, in the test with UACC-62, the GI50 is > 100 µM (inactive).
As to `Fc1cc(-c2cc(-c3ccccc3)no2)c(Cl)cc1Cl`, the GI50 was 10.3 µM (inactive) with A549; 34.5 µM (inactive) in the test with CAKI-1; 10.7 µM (inactive) in the test with CCRF-CEM; > 32.3 µM (inactive) in the test with DU-145; 36 µM in the test with HCT-15; 23.1 µM (inactive) with M14. Moreover, the GI50 in the test with MDA-MB-231 was 14.1 µM (inactive); with MDA-N, 16.1 µM (inactive); with NCI/ADR-RES it was 54.8 µM (inactive); in the test on OVCAR-5, 1.29 µM (inactive); with RPMI-8226, 6.93 µM (inactive); with SK-MEL-28, > 29.8 µM (inactive). Besides, the GI50 in the test on SK-OV-3 was > 32.5 µM (inactive); in the test with SN12C, > 32.4 µM (inactive); in the test with SNB-75, > 31.6 µM (inactive); in the test on SR it was 13.9 µM (inactive); in the test with SW-620, 20.9 µM (inactive); in the test with UACC-257, > 56.8 µM (inactive). For the same compound, in the test with UACC-62, the GI50 is 43.2 µM (inactive).
With `COC(=O)Nc1nc(=O)c2cc(OC)c(OC)cc2[nH]1`, the GI50 is > 100 µM (inactive) in the test with A549; 20.2 µM (inactive) in the test on CAKI-1; 6.04 µM (inactive) in the test on CCRF-CEM; 32.7 µM (inactive) with DU-145; 17.5 µM in the test with HCT-15; > 100 µM (inactive) in the test on M14. In addition, the GI50 with MDA-MB-231 is 81.3 µM (inactive); in the test on MDA-N, 2.31 µM (inactive); in the test with NCI-H226, 37.6 µM (inactive); in the test on NCI/ADR-RES it was 5.47 µM (inactive); with OVCAR-5, > 100 µM (inactive); with SK-MEL-28, 63 µM (inactive). For the same compound, the GI50 with SK-OV-3 was 42.1 µM (inactive); in the test on SN12C, 64.9 µM (inactive); in the test on SNB-75, 11.6 µM (inactive); in the test with SR, > 100 µM (inactive); in the test on SW-620, 3.85 µM (inactive); in the test on UACC-257, > 100 µM (inactive). Besides, the GI50 with UACC-62 is 6.56 µM (inactive).
For `c1ccc(-c2c3c(nc4c2CC[C@H]4NC2=NCCN2)[C@@H](NC2=NCCN2)CC3)cc1`, the GI50 is > 87.9 µM (inactive) in the test on A549; > 100 µM (inactive) in the test on CAKI-1; > 100 µM (inactive) with CCRF-CEM; > 100 µM (inactive) in the test with DU-145; more than 100 µM in the test with HCT-15; > 100 µM (inactive) in the test on M14. Also, the GI50 in the test on MDA-MB-231 was > 100 µM (inactive); in the test with MDA-N it was > 100 µM (inactive); with NCI-H226, > 73.1 µM (inactive); in the test on NCI/ADR-RES, > 100 µM (inactive); with OVCAR-5, > 100 µM (inactive); with SK-MEL-28, > 100 µM (inactive). Moreover, the GI50 in the test with SK-OV-3 is > 100 µM (inactive); in the test with SN12C, > 100 µM (inactive); in the test on SNB-75, 58.1 µM (inactive); in the test with SR, > 100 µM (inactive); in the test with SW-620 it was > 100 µM (inactive); in the test with UACC-257, > 90.6 µM (inactive). Moreover, the GI50 in the test with UACC-62 is > 100 µM (inactive).
As to `CC1=C(C(=O)N[C@@H](CC(C)C)C(=O)O)N2C(=O)[C@@H](NC(=O)[C@@H](N)Cc3ccccc3)[C@H]2SC1`, the GI50 in the test with A549 is > 100 µM (inactive); with CAKI-1 it was > 100 µM (inactive); in the test with CCRF-CEM it was > 100 µM (inactive); with DU-145, > 100 µM (inactive); in the test on HCT-15 it was more than 100 µM; in the test on M14, > 100 µM (inactive). Besides, the GI50 with MDA-MB-231, with MDA-N, in the test with NCI-H226, with NCI/ADR-RES, in the test on OVCAR-5 and in the test on RPMI-8226 was > 100 µM (inactive) throughout. Further, the GI50 in the test on SK-MEL-28, in the test on SN12C, with SNB-75, in the test with SR, in the test with SW-620 and in the test on UACC-257 was > 100 µM (inactive) each time. Also, in the test on UACC-62, the GI50 was > 100 µM (inactive).
On to `FC(F)(F)c1ccc2c(c1)nc(Cc1ccc(Cl)cc1)n2CC1CCCN2CCCCC12` (stereo not drawn), for which the GI50 is 12.6 µM (inactive) with A549; 14.8 µM (inactive) in the test with CAKI-1; 10 µM (inactive) with DU-145; 8.69 µM in the test on HCT-15; 2.07 µM (inactive) in the test with M14; 3.27 µM (inactive) in the test with MDA-MB-231. Moreover, the GI50 is 1.52 µM (inactive) in the test on MDA-N; 11.9 µM (inactive) in the test on NCI-H226; 8.18 µM (inactive) in the test with NCI/ADR-RES; 12.5 µM (inactive) in the test on OVCAR-5; 2.52 µM (inactive) with SK-MEL-28; 11.9 µM (inactive) in the test on SK-OV-3. Further, the GI50 in the test with SN12C is 9.79 µM (inactive); in the test with SNB-75, 1.59 µM (inactive); in the test with SR, 2.29 µM (inactive); in the test with SW-620, 13.2 µM (inactive); with UACC-257, 2.92 µM (inactive); in the test on UACC-62, 2.89 µM (inactive).
